# Values of other authors as cited in patent US6469008B2, “(R)-hydroxynefazodone antipsychotic therapy” (Sepracor Inc., priority 1999, dated 2002).
# Settings: AUC and Cmax increasing more than proportionally with dose and upon multiple dosing; cited from earlier work
structure (smiles),measurement,value
"CC(O)c1nn(CCCN2CCN(c3cccc(Cl)c3)CC2)c(=O)n1CCOc1ccccc1 (racemic) [(RS)-OH, 2-[3-[4-(3-chlorophenyl)1-piperazinyl]propyl]-5-(1-hydroxyethyl)-2,4-dihydro-4-(phenoxyethyl)-3H-1,2,4-triazol-3-one, reference compound]",kinetics for dose and time (AUC and Cmax),nonlinear kinetics
